# Test results from US10351601B2, “CXCR4 antagonists and methods of use” (Mainline Biosciences, priority 2016, dated 2019).
# Where two headings read alike, the source gives them in different places. Bridge positions count the residues as written; N and C are the ends. Square brackets hold non-standard residues; d marks the D form. Peptide text beside a SMILES is read from it. * marks the point of attachment. 2Nal = N[C@@H](Cc1ccc2ccccc2c1)C(=O)O; Lys(iPr) = CC(C)NCCCC[C@H](N)C(=O)O; hCys = N[C@@H](CCS)C(=O)O; Bz = O=C(c1ccccc1)*; Mpa = O=C(O)CCS
# Molecular target: T1, Human chemokine receptor CXCR4 (Homo sapiens, UniProt P61073)
# T1 construct: expressed in transfected cells; host or cells: Chem-1 cells (membranes)
# T1 sequence (P61073 whole entry): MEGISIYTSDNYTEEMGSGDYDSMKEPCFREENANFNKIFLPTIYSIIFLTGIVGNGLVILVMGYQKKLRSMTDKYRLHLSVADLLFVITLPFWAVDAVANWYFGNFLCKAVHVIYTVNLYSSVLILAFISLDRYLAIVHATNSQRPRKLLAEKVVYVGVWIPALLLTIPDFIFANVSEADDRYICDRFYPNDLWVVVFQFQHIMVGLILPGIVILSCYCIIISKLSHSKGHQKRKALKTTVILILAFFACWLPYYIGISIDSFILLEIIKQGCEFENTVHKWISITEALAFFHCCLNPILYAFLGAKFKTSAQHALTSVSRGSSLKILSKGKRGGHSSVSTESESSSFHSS
# Assay: Human CXCR4/125I-SDF-1α binding inhibition assay
# Method: “Ki” values are calculated using IC50 values determined in the CXCR4/^125I-SDF-1α binding assay described below by employing equation 7.22 of Enzymes, A Practical Introduction to Structure, Mechanism, and Data Analysis, Robert A. Copeland, Wiley-VCH, New York, 1996, page 207.
# Human CXCR4/^125I-SDF-1α Binding Inhibition Assay:
# Human chemokine receptor CXCR4 expressed in Chem-1 cells were used in modified HEPES buffer pH 7.4. A […] (Membrane protein may change from lot to lot, the concentration used were adjusted as necessary), aliquot was incubated with 0.03 nM [^125I]SDF-1α for 90 minutes at 25° C. Non-specific binding was estimated in the presence of 30 nM SDF-la. Membranes were filtered and washed, filters were then counted to determine [^125I]SDF-1α specifically bound. Compounds were screened starting at 10 μM with 11-point dilutions (Valenzuela-Fernandez A, et al. J Biol Chem. 277(18):15677, 2002).
# [1] = calculated from IC50 of the CXCR4/125I-SDF-1α binding assay, read-out: Binding Kb
"IC50 (CXCR4 expressed in Chem-1 cells, 0.03 nM [125I]SDF-1α, 90 minutes at 25° C., HEPES buffer pH 7.4, read-out: Binding IC50) [nM]",SMILES,Kb [nM],IC50 [nM],Kb [1] [nM]
–,"CC(C)NCCCC[C@H](NC(=O)[C@@H]1CCSSC[C@H](NC(=O)c2ccccc2)C(=O)N[C@@H](Cc2ccc(O)cc2)C(=O)N[C@@H](CCCCNC(C)C)C(=O)N[C@H](CCCNC(=N)N)C(=O)N[C@@H](Cc2ccc3ccccc3c2)C(=O)NCC(=O)N1)C(=O)NCC(N)=O [Example 12, Benzoyl-cyclo[Cys-Tyr-Lys(iPr)-(D-Arg)-2Nal-Gly-hCys]-Lys(iPr)-Gly-NH2] (Bz-CY[Lys(iPr)][dR][2Nal]G[hCys][Lys(iPr)]G-NH2; disulfide 1-7)",0.21,–,–
–,"CCNC(=O)CNC(=O)[C@H](CCCCNC(C)C)NC(=O)[C@@H]1CSSCC[C@H](NC(=O)c2ccccc2)C(=O)N[C@@H](Cc2ccc(O)cc2)C(=O)N[C@@H](CCCCNC(C)C)C(=O)N[C@H](CCCNC(=N)N)C(=O)N[C@@H](Cc2ccc3ccccc3c2)C(=O)NCC(=O)N1 [Example 14, Benzoyl-cyclo[hCys-Tyr-Lys(iPr)-(D-Arg)-2Nal-Gly-Cys]-Lys(iPr)-Gly-NH(Et)] (Bz-[hCys]Y[Lys(iPr)][dR][2Nal]GC[Lys(iPr)]G-NHEt; disulfide 1-7)",0.39,1.3,–
> 1000,"N=C(N)NCCC[C@@H]1NC(=O)CCSSC[C@@H](C(=O)N[C@@H](CCCNC(=N)N)C(=O)NCC(=O)N[C@H](Cc2ccccc2)C(=O)NCC(N)=O)NC(=O)CNC(=O)[C@H](Cc2ccc3ccccc3c2)NC(=O)[C@H](CCCNC(=N)N)NC(=O)[C@H](Cc2ccc(O)cc2)NC1=O [Example 5, Cyclo[Mpa-Arg-Tyr-Arg-2Nal-Gly-Cys]-Arg-Gly-(D-Phe)-Gly-NH2] ([Mpa]RYR[2Nal]GCRG[dF]G-NH2; disulfide 1-7)",–,–,> 1000
–,"CC(C)NCCCC[C@@H]1NC(=O)[C@H](Cc2ccc(O)cc2)NC(=O)CCSSC[C@@H](C(=O)N[C@H](CCCNC(=N)N)C(=O)NCC(=O)N[C@H](Cc2ccccc2)C(=O)NCC(N)=O)NC(=O)CNC(=O)[C@H](Cc2ccc3ccccc3c2)NC(=O)[C@@H](CCCNC(=N)N)NC1=O [Example 4, Cyclo[Mpa-Tyr-Lys(iPr)-(D-Arg)-2Nal-Gly-Cys]-(D-Arg)-Gly-(D-Phe)-Gly-NH2] ([Mpa]Y[Lys(iPr)][dR][2Nal]GC[dR]G[dF]G-NH2; disulfide 1-7)",–,–,0.21
